The test system of one series is A.baumanni ATCC 19606. It is filed as cell-based, Acinetobacter baumannii. The settings on record: ATCC 19606, 18 h. The method, then: (§1) The bacterial strains used were Escherichia coli ATCC 25922, Staphylococcus aureus ATCC 25923, Klebsiella pneumoniae ATCC 700603, Acinetobacter baumannii ATCC 19606, Pseudomonas aeruginosa ATCC 27853 and Staphylococcus epidermidis ATCC 12228. The reference bacterial strains used were purchased from American Type Culture Collection (ATCC) (Manassas, Virginia, USA). They were grown overnight (o/n) at 37 °C in complete Müller-Hinton broth (MHB, Difco) medium with shaking (130 rpm). The day after, the overnight bacterial cultures were diluted in fresh MHB (300 μL o/n culture in 10 mL) and incubated at 37 °C with shaking (130 rpm) for approximately 2 h (mid-log phase) until reaching an optical density (OD) at 600 nm (OD600) ≈ 0.3.
(§2) Peptides diluted in MHB to a concentration of 128 μM were added to the first column of wells of a 96-well round-bottom microtiter plate (Sarstedt, Milan, Italy) and serially diluted (1:2) in a final volume of 50 μL MHB was added to the next wells. Then, a mid-log bacterial cultures (OD 600≈ 0.3) were diluted to 5 × 10^5 colony-forming units (CFU)/mL in MHB and 50 μL of this bacterial suspension was added to each well. In this way, the final bacterial concentration was reduced to 2.5 × 10^5 CFU/mL and the peptide concentration in the wells was also halved in a final volume of 100 μL (final bacteria load was 2.5 × 10^4 CFU/well). The same amount of untreated bacteria in MHB was used as a control for bacterial growth. […] MIC was determined by visual inspection at the end of incubation as the first clear well. Data are reported as moda of independent experiments repeated three times or four times in case of uncertain values.

A further series has as its system T1, chymotrypsin.
T1 construct: purchased Sigma-Aldrich
Nature of the series: Proteolytic stability with chymotrypsin. In kind it is in vitro ADME. The settings on record: chymotrypsin (isolated enzyme) in buffer, after 90 min, Tris·HCl 50 mM pH 7.8, 37 °C; for remaining at 1.5 h, 0.625 mg/mL: 0.125 mg peptide, 1.25 µg enzyme, HPLC peak area (HPLC–MS), triplicates, read-out: percentage of intact peptide with chymotrypsin. The method, then: The stability of the peptides in the presence of chymotrypsin was monitored by HPLC–MS, analysing the fragments derived from the degradation of the peptide. All 20-mer analogues (a–f) are sensitive to chymotrypsin. The rate of peptide degradation was calculated as the percentage of intact peptide detected at defined time points. All peptides were mostly degraded within the first 15 min of incubation, with the exception of the lipopeptide e and the short peptide h. […] For peptide h, which was designed with an Aib residue to improve proteolytic resistance, 50% of the peptide was still intact after 90 min (Fig. 5A). The other peptides were cleaved on the C-terminal side of Leu21 or Trp23 as the first cleavage observed. Successive degradations involve Leu14 for all peptides (with the exception of a and h). Concerning 13-mer peptides (g and h), degradation at position 21 occurred only for g and not for the Aib containing peptide h, for which Leu14 is the sensitive point for chymotrypsin attack.
All the degradation experiments were executed in triplicates.

For another series, the system named is E.coli ATCC 25922. In kind it is cell-based, Escherichia coli. The settings on record: ATCC 25922, 18 h. Here is the method:
as §1, §2

The subject of the next series is K.pneumoniae ATCC 700603. It is filed as cell-based, Klebsiella pneumoniae. The conditions noted are these: ATCC 700603, 18 h. Here is the method: as §1, §2
The subject of another series is S.epidermidis ATCC 12228. In kind it is cell-based, Staphylococcus epidermidis. The conditions noted are these: ATCC 12228, 18 h. The method, then: as §1, §2
Another series concerns HaCaT cell line. The conditions noted are these: 24 h.
A further series has as its system P.aeruginosa ATCC 27853. In kind it is cell-based, Pseudomonas aeruginosa. The conditions noted are these: ATCC 27853, 18 h. The method, then:
as §1, §2

The conditions of series [1]: 4h and 24 h incubation, different concentrations.
A further series concerns S.aureus ATCC 25923. In kind it is cell-based, Staphylococcus aureus. The method, then:
as §1, §2

Series [2] concerns ram red blood cells (RBCs). The settings on record: 4% v/v ram RBCs in PBS, 1 h, 37 °C, absorbance 540 nm, 100% = 1% Triton X-100; all concentrations tested; n = 3. The method, then: The lytic potential towards eukaryotic cell membranes was assessed by measuring the release of haemoglobin from commercial ram red blood cells (RBCs) (Microbiol s.r.l., Cagliari, Italy) after exposure to the peptides. First, erythrocytes were isolated by centrifugation, washed with PBS and then suspended at 8% (v/v) in PBS. Secondly, 100 µL erythrocytes suspension was added into each well of a 96-well microplate. Then, 100 µL peptide solution was added to each well at different concentrations (the final concentration of erythrocytes suspension was 4% v/v), and the plates were incubated for 1 h at 37 °C and centrifuged at 1000 g for 10 min. Finally, 100 µL aliquots of supernatant were transferred to fresh 96-well microplate, and the release of haemoglobin was monitored by measuring the absorbance at 540 nm with Tecan microplate reader (Tecan Trading AG, Switzerland). 0% and 100% haemolysis were determined in PBS and 1% Triton X-100, respectively.

The test system of series [3] is E. coli, A. baumannii, K. pneumoniae, P. aeruginosa, and S. epidermidis strains. In kind it is cell-based. The settings on record: 18 h. Here is the method: as §1, §2
For series [4] the following is noted: human serum, 37 °C, preliminary. Here is the method: The proteolytic stability of synthetic peptides was assessed using chymotrypsin (Sigma–Aldrich) and human serum (Sigma–Aldrich)[46]. The peptide (0.125 mg) was dissolved in the minimum amount (5 µl) of DMSO (dimethylsulfoxide) and then diluted (final volume: 50 µl) with Tris·HCl 50 mM, pH 7.8. Then, it was incubated with and without the enzyme solution (1.25 µg of enzyme in 150 µl buffer) at 37 °C for 24 h. After the workup procedures, the samples were analysed by RP-HPLC as described in the ‘peptide synthesis and characterization’ experimental section. A peptide not resistant to chymotripsin was used as a positive test. As a control, we used the 128-137 C-terminal portion of natural Endonuclease V. The peptide sequence is as follows: […]. All the degradation experiments were executed in triplicates.
Figure S10. […] The bars indicate the final time when the HPLC-MS signal of the peptides is still detectable in solution.

Series [5] in a line: Hydrophobicity by RP-HPLC retention time. In kind it is physicochemical. The settings on record: for Retention time tR: used as measure of hydrophobicity, RP-HPLC, Phenomenex Luna C18 (100 Å, 5µ), linear gradient 5%B to 95%B over 30 min, A 0.1% TFA in 9:1 water:acetonitrile, B 0.1% TFA in 9:1 acetonitrile:water, 1 mL/min, peptide 0.5 mg/mL in MeOH, UV 215 and 280 nm. The method, then: Peptide hydrophobicity was calculated as difference in retention times between peptide analogues b–h and peptide a. Each peptide was dissolved in MeOH to a concentration of 0.5 mg/mL and then subjected to RP-HPLC on an analytical Phenomenex Luna C18 (100 Å, 5µ) column using 0.1% TFA in 9:1 water:acetonitrile as solvent A, and 0.1% TFA in 9:1 acetonitrile:water as solvent B. The peptides were eluted using a linear gradient as follows: 5%B to 95%B over 30 min. The flow rate was 1 mL/min and the absorbance was measured at 215 nm and 280 nm. The retention time was recorded for each peptide.

A short description of series [6]: Circular dichroism, helicity. It is filed as physicochemical. The conditions noted are these: CD in TFE; taken as suggesting aggregation (coiled-coil). The method, then:
The secondary structure of the peptides was investigated by circular dichroism (CD) spectroscopy in various environments, including 0.2 mM potassium-phosphate buffer (aqueous solution, pH 7), 100 mM sodium dodecyl sulphate (SDS), and 2,2,2-trifluoroethanol (TFE). As these peptides are active on membranes, we chose SDS, as SDS micelles represent a model mimicking the prokaryotic cell membrane. TFE, on the other hand, is a solvent that induces the formation of helical structures.
The electronic CD curves in the far-UV region (below 260 nm) were obtained on a Jasco (Tokyo, Japan) model J-1500 spectropolarimeter with a fused quartz cell of 0.02 cm pathlength (Hellma, Mühlheim, Germany). The values are expressed in terms of [θ]R, the molar ellipticity per residue (deg × cm^2/dmol). Spectra were recorded at room temperature in water, in spectrograde TFE (99.9% Acros Organics, Geel, Belgium) and 100 mM SDS solution at 3 × 10^−4 M peptide concentration. The final molar peptide-to-lipid ratio is 1:300.
Background: Circular dichroism is the unequal absorption of left and right circularly polarised light.

The mark [7] stands for this setting: S.aureus ATCC 25923, Mueller–Hinton broth, 18 h, 37 °C, 2.5 × 10^5 CFU/mL, visual, mode of three independent tests.

These results are taken from article PMC10499915 (Scientific Reports, 2023).

In brackets after ≈: the same amount, converted by molar mass. Where two headings read alike, the source gives them in different places. Square brackets hold non-standard residues; d marks the D form. Peptide text beside a SMILES is read from it. * marks the point of attachment. Palmitoyl = CCCCCCCCCCCCCCCC(=O)*; Aib = CC(C)(N)C(=O)O

Procedure for HaCaT cell line: Cytotoxicity was measured by the MTT assay on human immortalized epidermal keratinocyte HaCaT cell line (DKFZ, Eppelheim, Germany). The HaCaT cells were grown in high-glucose Dulbecco’s modified Eagle’s medium (DMEM) (Sigma-Aldrich, Milan, Italy). DMEM medium was supplemented with 10% foetal bovine serum (FBS; Sigma, Milan, Italy), 2 mM glutamine (Sigma, Milan, Italy), 100 U/mL penicillin (Sigma, Milan, Italy) and 100 µg/mL streptomycin (Sigma, Milan, Italy). The cells were maintained at 37 °C in the presence of 5% CO2 and in a humidified incubator.
Cells were counted in a Burker-Türk chamber to prepare a suspension of 2 × 10^5 cells/ml in DMEM High Glucose Complete Medium (Sigma-Aldrich, Milan, Italy). 100 μL of this suspension was added to the wells of a 96-well flat-bottom transparent microtiter plate (Euroclone, Milan, Italy) specially treated for tissue culture. The plate was incubated for 24 h at 37 °C and 5% CO2 to allow the cells in each well to reach a semiconfluent state. The following day, serial dilutions (1:2) of the peptides, starting with 64 μM, were prepared in DMEM medium, and 100 μL of these solutions were used to replace the medium in the plate with HaCaT cells. The same amount of untreated DMEM high-glucose medium was used as a cell growth control. DMEM high-glucose complete medium (100 μL) was used as a negative control to check the sterility of the medium. The plate was sealed with Parafilm to minimize evaporation and incubated at 37 °C and 5% CO2 for 20 h. Then, 25 μL MTT (Sigma-Aldrich, Milan, Italy) dissolved in phosphate-buffered saline (PBS) was added to each well to a final concentration of 1 mg/mL MTT, and the plate was incubated for 4 h in the dark at 37 °C and 5% CO2.
At the end of incubation, 100 μL 10% (w/v) Igepal (Sigma-Aldrich, Milan, Italy) in 10 mM HCl was added to each well, and the plate was incubated overnight in the dark at 37 °C and 5% CO2. The absorbance of MTT at 570 nm was measured using a Nanoquant Infinite-M200Pro plate reader (Tecan, Männedorf, Switzerland). Student’s t-test was performed for all samples.

In the case of `CCCCCCCCCCCCCCCC(=O)N[C@@H](CCCCN)C(=O)N[C@@H](CCCNC(=N)N)C(=O)N[C@@H](CC(C)C)C(=O)N[C@@H](CCCCN)C(=O)N[C@@H](CCCCN)C(=O)N[C@H](C(=O)NCC(=O)N[C@@H](CCCCN)C(=O)N[C@H](C(=O)N[C@@H](CC(C)C)C(=O)N[C@@H](CCCCN)C(=O)N[C@@H](Cc1c[nH]c2ccccc12)C(=O)N[C@H](C(=O)N[C@@H](C)C(=O)N[C@@H](CCCCN)C(=O)N[C@H](C(=O)N[C@H](C(=O)NCC(=O)N[C@@H](CO)C(=O)N[C@H](C(N)=O)[C@@H](C)CC)C(C)C)[C@@H](C)CC)[C@@H](C)CC)C(C)C)[C@@H](C)CC` [e] (Palmitoyl-KRLKKIGKVLKWIAKIVGSI-NH2), the MIC is over 32 µM in the series with A.baumanni ATCC 19606; over 32 µM in the series with E.coli ATCC 25922; over 32 µM against K.pneumoniae ATCC 700603; over 32 µM with S.epidermidis ATCC 12228; over 32 µM against P.aeruginosa ATCC 27853; over 32 µM in the series on S.aureus ATCC 25923 (ATCC 25923, 18 h). In addition, the remaining at 1.5 h, 0.625 mg/mL in the series with chymotrypsin was 65%. Moreover, the metabolised at 1.5 h, 0.625 mg/mL with chymotrypsin (HPLC, read-out: percentage of peptide degraded by chymotrypsin) was under 50%. Moreover, the “HC50 (cytotoxicity on HaCaT cells)” value in the series with HaCaT cell line was under 32 µM. Also, the “solubility in Müller-Hinton broth” value in series [1] is “low solubility”. For the same molecule, in series [2], the “membranolytic (haemolytic) effect on erythrocytes” value (“membranolytic (haemolytic) effect” for short) is “significant lytic effect”.
As for `CC[C@H](C)[C@H](NC(=O)[C@H](Cc1c[nH]c2ccccc12)NC(=O)[C@H](CCCCN)NC(=O)C(C)(C)NC(=O)[C@@H](NC(=O)[C@H](CCCCN)NC(=O)CNC(=O)[C@@H](NC(=O)[C@H](CCCCN)NC(=O)[C@H](CCCCN)NC(=O)[C@H](CC(C)C)NC(=O)[C@H](CCCNC(=N)N)NC(=O)[C@H](CCCCN)NC(C)=O)[C@@H](C)CC)C(C)C)C(N)=O` [h] (Ac-KRLKKIGKV[Aib]KWI-NH2), in series [3], the “MIC, span over all tested bacterial strains except S. aureus” value fell in the range of 2 to 8 µM. Also, the MIC against A.baumanni ATCC 19606 is 2 µM (≈ 3.25 µg/mL); against E.coli ATCC 25922, 4 µM (≈ 6.49 µg/mL); in the series on K.pneumoniae ATCC 700603, 8 µM (≈ 13 µg/mL); in the series with S.epidermidis ATCC 12228, 8 µM (≈ 13 µg/mL); with P.aeruginosa ATCC 27853 it was 8 µM (≈ 13 µg/mL); against S.aureus ATCC 25923 (ATCC 25923, 18 h) it was over 64 µM. This molecule also came in with an MIC against S.aureus ATCC 25923 (setting [7]) of over 64 µM. Besides, the remaining at 1.5 h, 0.625 mg/mL with chymotrypsin worked out at 50%. The “time peptide withstands proteolytic degradation in serum (HPLC-MS signal still detectable)” value in [4] is “up to 180 min”. For the same molecule, the “Retention time tR” value in series [5] is recorded as 11.7 min. Further, the “membranolytic (haemolytic) effect” value in [2] was “no membranolytic effect”.
On to Ac-KRLKKIGKVLKWI-NH2 [g], for which the “MIC, span over all tested bacterial strains except S. aureus” value in [3] lay within 2 to 8 µM. Besides, the MIC against A.baumanni ATCC 19606 was 2 µM; in the series on E.coli ATCC 25922 it was 4 µM; in the series on K.pneumoniae ATCC 700603, 8 µM; against S.epidermidis ATCC 12228, 4 µM; in the series on P.aeruginosa ATCC 27853 it was 8 µM; against S.aureus ATCC 25923 (ATCC 25923, 18 h) it was over 64 µM. This molecule also displayed an MIC against S.aureus ATCC 25923 (setting [7]) of over 64 µM. Further, the “proteolytic degradation in serum” value in series [4] (HPLC-MS) is listed as “rapidly degraded”. In addition, the “Retention time tR” value in series [5] came to 12.1 min.
Regarding Ac-KRLKKIGKVLKWIAKIVGSI-NH2 [b], the MIC in the series with A.baumanni ATCC 19606 came out at 2 µM; with E.coli ATCC 25922, 4 µM; in the series with K.pneumoniae ATCC 700603, 8 µM; in the series on S.epidermidis ATCC 12228, 4 µM; in the series on P.aeruginosa ATCC 27853 it was 16 µM; against S.aureus ATCC 25923 (setting [7]) it was 4 µM. In addition, the “Retention time tR” value in [5] is listed as 17.2 min. For the same molecule, the “Hydrophobicity ΔtR” value in [5] (ΔtR = tR(x)−tR(a), relative to compound a, RP-HPLC C18, 5%–95%B over 30 min) worked out at 4.0. Further, in series [6], the “ratio between molar ellipticities at 222 and 208 nm” value is recorded as over 1. The “membranolytic (haemolytic) effect” value in [2] is “significant lytic effect”.

What is called MIC is the smallest concentration in the dilution series that meets the test's criterion for growth inhibition. Lower therefore signals a more susceptible organism.
